“Also recorded” adds a separate entry of the source. Read-outs that look alike come from different tables or passages of the source.
Columns and labels:
[1] = Aqueous stability: non-selective hydrolysis of the probe, k(hydro); format: physicochemical; details: for Stability k(hydro): rate of non-selective hydrolysis of the probe and turn on of the DETECT system in the absence of its biomarker target
Method: In order to find use in rapid diagnostic tests, ESBL-targeting probes that had at least the following favorable criteria were evaluated: • 1. Aqueous stability—measured through non-selective hydrolysis • a. Favorable criteria: k(hydro)<0.0062 mM/min • 2. Activity towards target β-lactamase target CTX-M-15—measured using recombinant β-lactamase • a. Favorable criteria: k(β-lactamase)>0.0568 mM/min • 3. Activity towards off-target lower generation β-lactamase (prioritizing the most common, TEM-1b) • a. Favorable criteria: k(TEM-1b)<0.02135 mM/min

[2] = test system: cefotaxime (CTX) non-susceptible Gram-negative bacteria (GNB); experiment: DETECT assay with 96-bacterial isolate panel, ROC curve analysis against cefotaxime (CTX) phenotype; format: cell-based; details: 2.5×10^6 CFU/mL, DETECT score A405 nm 30 min minus 0 min; for Sensitivity (ROC Curve Analyzed with CTX): 96-bacterial isolate panel (47 CTX susceptible, 49 CTX non-susceptible); for AUC (95% CI) (ROC Curve Analyzed with CTX) / Specificity (ROC Curve Analyzed with CTX): 96-bacterial isolate panel
Excerpt: A pool of 5 probe hits were each evaluated using a 96-bacterial isolate panel. In these studies, the 96-bacterial isolate panel was comprised of 47 cefotaxime (CTX) susceptible and 49 CTX non-susceptible, Gram-negative bacteria (GNB). As described above, CTX is a surrogate to detect ceftriaxone susceptibility and, therefore, was applied as the reference phenotype to group true positive, CTX-non-susceptible (include both CTX resistant and intermediate), and true negative, CTX-susceptible. Whole cell suspensions were prepared to yield an experimental concentration of 2.5×10^6 CFU/mL. In a 96-well plate, wells were prepared with all DETECT reagents, except for the targeting probe under investigation. Bacterial suspensions were transferred to the prepared wells of the plate and an initial timepoint was recorded (0 minutes) upon addition of a stock solution of a given probe (Sub-1, (7R)-7-(2-(1H-tetrazol-1-yl)acetamido)-8-oxo-3-((phenylthio)methyl)-5-thia-1-azabicyclo[4.2.0]oct-2-ene-2-carboxylic acid (BAD-5835), (7R)-7-(3-methylisoxazole-5-carboxamido)-8-oxo-3-((phenylthio)methyl)-5-thia-1-azabicyclo[4.2.0]oct-2-ene-2-carboxylic acid (BAD-1468), (7R)-8-oxo-3-((phenylthio)methyl)-7-(2-(pyridin-3-yl)acetamido)-5-thia-1-azabicyclo[4.2.0]oct-2-ene-2-carboxylic acid (BAD-5627), and (7R)-8-oxo-3-((phenylthio)methyl)-7-((S)-piperidine-3-carboxamido)-5-thia-1-azabicyclo[4.2.0]oct-2-ene-2-carboxylic acid (BAD-3462), (7R)-8-oxo-7-(2-phenoxyacetamido)-3-((phenylthio)methyl)-5-thia-1-azabicyclo[4.2.0]oct-2-ene-2-carboxylic acid (BAD-7465)). The absorbance of the wells was collected at 405 nm at 0 and 30 minutes, using a simple benchtop plate reader. The “DETECT Score” values were then calculated for each sample by subtracting the 405 nm absorbance recorded at the 0-minute timepoint from the 30-minute timepoint. Therefore, each sample was identified to have a unique DETECT score that was then can be group into positive and negative phenotype subgroups for threshold value determination via ROC curve analysis.

papain = molecular target: T1, papain (Carica papaya, UniProt P00784); experiment: Dry reagent test strip, Study 1: papain activation by cysteine, reflectance; details: coating and drying at 37° C.; judged by reflectance of control strip
T1 sequence (P00784 134-345): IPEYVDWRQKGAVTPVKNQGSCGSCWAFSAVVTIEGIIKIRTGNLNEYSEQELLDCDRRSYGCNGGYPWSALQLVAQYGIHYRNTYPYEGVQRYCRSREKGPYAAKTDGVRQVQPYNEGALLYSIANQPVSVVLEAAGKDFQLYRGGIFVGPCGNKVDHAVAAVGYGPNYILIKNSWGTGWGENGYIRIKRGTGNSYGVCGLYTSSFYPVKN
Method: The second coating consisted of adding the water-soluble components (buffer salts and papain) and dried a second time in the oven at 37° C. […] Multiple formulation combinations of the DETECT components were examined to determine optimal change of reflectance over time.
Excess solution is removed with glass rods and the paper placed in the oven and dried for 60 minutes at 37° C. In a dry room (relative humidity<20%), the dried filter paper is adhered onto a polyester film support. […] The order of applying the DETECT components typically includes adding the methanol soluble components first followed by the water-soluble components.
Papain activity by cysteine activation was assessed by using two test strips where one received 100 μM cysteine (sample) while the other received buffer (control).
In study 1, different formulations (i.e., different amounts of the papain and BAPA) were used to prepare strips to obtain the highest possible reflectance change when the yellow-colored signal is generated from activating papain (se FIG. 8) and measured with a Konica Minolta reflectance spectrophotometer. […]
Study 1. […] The difference of percent reflectance (% Rscore) between sample and control is determined by subtracting the percent reflectance of the control strip from the sample strip for each time point to yield an increasing % Rscore over time (see FIG. 9A-B).

recombinant CTX-M-15 = recombinant CTX-M-15 (Escherichia coli, UniProt Q9EXV5); experiment: Dry reagent test strip, Study 2: activation by recombinant CTX-M-15, reflectance; details: 1 or 4 nM CTX-M-15, read every 4 minutes for 20 minutes
Method: If the small molecule targeting probe was not severely affected by the fabrication process, then in the presence of CTX-M-15, it will be hydrolyzed and liberate the triggering unit to initiate the signaling cascade thus providing the yellow colorimetric response.
The sample test strip received 1 or 4 nM of β-lactamase, while the control received buffer and the reflectance was monitored every 4 minutes for 20 minutes (see FIG. 8B).

[3] = cited from earlier work

Chain of recombinant CTX-M-15 (Q9EXV5 entry or part of it): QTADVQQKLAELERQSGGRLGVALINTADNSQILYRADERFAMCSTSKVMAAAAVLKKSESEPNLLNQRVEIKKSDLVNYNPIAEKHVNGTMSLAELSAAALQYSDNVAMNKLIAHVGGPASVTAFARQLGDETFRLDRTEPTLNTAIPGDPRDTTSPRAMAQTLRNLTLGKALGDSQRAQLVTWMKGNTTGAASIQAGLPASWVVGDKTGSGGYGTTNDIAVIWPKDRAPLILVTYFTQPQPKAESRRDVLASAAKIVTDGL

Compound | Stability k(hydro) [1] [M/min] | Sensitivity (ROC Curve Analyzed with CTX) [2] | AUC (95% CI) (ROC Curve Analyzed with CTX) [2] | Specificity (ROC Curve Analyzed with CTX) [2] | stability of the probe to the test strip fabrication process (papain) | detection of recombinant CTX-M-15 on test strip (change in reflectance) (recombinant CTX-M-15) | extinction coefficient ([3]; absorbance wavelength of 570 nm) | fluorescent quantum yield (ϕ) ([3]; in water) | extinction coefficient ([3]; absorbance wavelength of 405 nm) | stability and promiscuity characteristics for rapidly detecting ceftriaxone non-susceptibility directly from urine [1]
O=C(Cc1cccnc1)N[C@@H]1C(=O)N2C(C(=O)O)=C(CSc3ccccc3)CSC12 (stereo partly drawn) [BAD-5627, (7R)-8-oxo-3-((phenylthio)methyl)-7-(2-(pyridin-3-yl)acetamido)-5-thia-1-azabicyclo[4.2.0]oct-2-ene-2-carboxylic acid] | 0.00352 | 0.9275 | 0.9614 | 0.9259 |  |  |  |  |  | 
O=C(Cn1cnnn1)N[C@@H]1C(=O)N2C(C(=O)O)=C(CSc3ccccc3)CSC12 (stereo partly drawn) [BAD-5835, (7R)-7-(2-(1H-tetrazol-1-yl)acetamido)-8-oxo-3-((phenylthio)methyl)-5-thia-1-azabicyclo[4.2.0]oct-2-ene-2-carboxylic acid] | 0.0044 | 0.8823 | 0.9586 | 0.9259 | did NOT decompose; also recorded: did not show any sign of degradation | retained its ability to detect the presence of CTX-M-15; also recorded: significant change in reflectance |  |  |  | 
O=c1ccc2nc3ccc(O)cc3oc-2c1 [resorufin] |  |  |  |  |  |  | 56,000 M^1 cm^−1 | 0.74 |  | 
O=C(O)C1=C(CSc2ccccc2)CSC2[C@H](NC(=O)[C@H]3CCCNC3)C(=O)N12 (stereo partly drawn) [BAD-3462, (7R)-8-oxo-3-((phenylthio)methyl)-7-((S)-piperidine-3-carboxamido)-5-thia-1-azabicyclo[4.2.0]oct-2-ene-2-carboxylic acid] | 0.00558 | 0.8116 | 0.8717 | 0.8519 |  |  |  |  |  | 
O=C(COc1ccccc1)N[C@@H]1C(=O)N2C(C(=O)O)=C(CSc3ccccc3)CSC12 (stereo partly drawn) [BAD-7465, (7R)-8-oxo-7-(2-phenoxyacetamido)-3-((phenylthio)methyl)-5-thia-1-azabicyclo[4.2.0]oct-2-ene-2-carboxylic acid] | 0.00161 | 0.7143 | 0.7717 | 0.8077 |  |  |  |  |  | 
Nc1ccc([N+](=O)[O-])cc1 [p-nitroaniline] |  |  |  |  |  |  |  |  | 9,767 M-1 cm^−1 | 
Cc1cc(C(=O)N[C@@H]2C(=O)N3C(C(=O)O)=C(CSc4ccccc4)CSC23)on1 (stereo partly drawn) [BAD-1468, (7R)-7-(3-methylisoxazole-5-carboxamido)-8-oxo-3-((phenylthio)methyl)-5-thia-1-azabicyclo[4.2.0]oct-2-ene-2-carboxylic acid] | 0.00198 | 0.8406 | 0.8846 | 0.8519 |  |  |  |  |  | 
O=C(Cc1ccccc1)N[C@@H]1C(=O)N2C(C(=O)O)=C(CSc3ccccc3)CSC12 (stereo partly drawn) [Sub-1, (7R)-8-oxo-7-(2-phenylacetamido)-3-((phenylthio)methyl)-5-thia-1-azabicyclo[4.2.0]oct-2-ene-2-carboxylic acid, reference compound] | 0.0062 | 0.9206 | 0.7717 | 0.8125 |  |  |  |  |  | not adequate
